From PubChem BioAssay AID1259411 (Chemical Carcinogenesis Research Information System (CCRIS), 2018)
Calls of active or inactive are those of the source. How the calls were made is not given here.

Tested on: rodent carcinogenicity bioassays, tumor incidence
Assay: CCRIS carcinogenicity studies
Method in brief: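 Archive of carcinogenicity, mutagenicity, tumor promotion and tumor inhibition results drawn from journals, NCI reports and other sources, expert-reviewed; covers 1985-2011 and is no longer updated.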

O=CNC(N1CCOCC1)C(Cl)(Cl)Cl (stereo not given)
carcinogen call (Species: RAT, Strain/Sex: WISTAR/FEMALE, Route: ORAL, Dose: 0, 67, 330, 665 MG/KG IN DIET LESS THAN 2 YR (STUDY DURATION: LESS THAN 2 YR), Dose: 0, 67, 330, 665 MG/KG IN DIET LESS THAN 2 YR (STUDY DURATION: LESS THAN 2 YR)): inactive; negative
carcinogen call (Species: RAT, Strain/Sex: WISTAR/MALE, Route: ORAL, Dose: 0, 67, 330, 665 MG/KG IN DIET LESS THAN 2 YR (STUDY DURATION: LESS THAN 2 YR), Dose: 0, 67, 330, 665 MG/KG IN DIET LESS THAN 2 YR (STUDY DURATION: LESS THAN 2 YR)): inactive; negative

Cc1cc(N=Nc2ccccc2C)ccc1N
carcinogen call (Species: DOG, Route: ORAL, Tumor Site: Type of Lesion: LIVER, GALL BLADDER, URINARY BLADDER, Tumor Site: Type of Lesion: LIVER, GALL BLADDER, URINARY BLADDER): active; positive
carcinogen call (Species: HAMSTER, Route: ORAL, Tumor Site: Type of Lesion: LIVER, URINARY BLADDER): active; positive
carcinogen call (Species: MOUSE, Route: INTRAPERITONEAL, ORAL, SUBCUTANEOUS, DERMAL, Tumor Site: Type of Lesion: LIVER): active; positive
carcinogen call (Species: MOUSE, Route: ORAL, SUBCUTANEOUS, Tumor Site: Type of Lesion: LUNG): active; positive
carcinogen call (Species: RAT, Route: ORAL, SUBCUTANEOUS, Tumor Site: Type of Lesion: LIVER): active; positive

CCNC(=O)[C@@H]1CCCN1C(=O)[C@H](CCCN=C(N)N)NC(=O)[C@H](CC(C)C)NC(=O)[C@@H](COC(C)(C)C)NC(=O)[C@H](Cc1ccc(O)cc1)NC(=O)[C@H](CO)NC(=O)[C@H](Cc1c[nH]c2ccccc12)NC(=O)[C@H](Cc1cnc[nH]1)NC(=O)[C@@H]1CCC(=O)N1
carcinogen call (Species: RAT, Strain/Sex: WISTAR/FEMALE, Route: SUBCUTANEOUS, Dose: 0, 0.0002, 0.0006, 0.0018 MG/KG 1/D FOR 24 MO (STUDY DURATION: 30 MO), Dose: 0, 0.0002, 0.0006, 0.0018 MG/KG 1/D FOR 24 MO (STUDY DURATION: 30 MO)): inactive; negative
carcinogen call (Species: RAT, Strain/Sex: WISTAR/MALE, Route: SUBCUTANEOUS, Dose: 0, 0.0002, 0.0006, 0.0018 MG/KG 1/D FOR 24 MO (STUDY DURATION: 30 MO), Dose: 0, 0.0002, 0.0006, 0.0018 MG/KG 1/D FOR 24 MO (STUDY DURATION: 30 MO)): inactive; negative

O=NN(CCO)C(=O)NCCCl
carcinogen call (Species: RAT, Strain/Sex: F344/FEMALE, Route: ORAL, Dose: 0, 42 MG/L IN DRINKING WATER 5 D/WK FOR 30 WK (STUDY DURATION: LIFETIME), Tumor Site: Type of Lesion: LIVER: TUMOR, UTERUS: TUMOR, SKIN: TUMOR, Tumor Site: Type of Lesion: LIVER: TUMOR, UTERUS: TUMOR, SKIN: TUMOR): active; positive
carcinogen call (Species: RAT, Strain/Sex: F344/MALE, Route: ORAL, Dose: 0, 42 MG/L IN DRINKING WATER 5 D/WK FOR 30 WK (STUDY DURATION: LIFETIME), Tumor Site: Type of Lesion: LIVER: TUMOR, LUNG: TUMOR, MESOTHELIUM: TUMOR, SKIN: TUMOR, Tumor Site: Type of Lesion: LIVER: TUMOR, LUNG: TUMOR, MESOTHELIUM: TUMOR, SKIN: TUMOR): active; positive

CNC[C@H](O)c1cccc(O)c1
carcinogen call (Species: MOUSE, Strain/Sex: B6C3F1/FEMALE, Route: ORAL, Dose: 0, 1250, 2500 PPM IN DIET FOR 103 WK, Dose: 0, 1250, 2500 PPM IN DIET FOR 103 WK): inactive; negative
carcinogen call (Species: MOUSE, Strain/Sex: B6C3F1/MALE, Route: ORAL, Dose: 0, 1250, 2500 PPM IN DIET FOR 103 WK, Dose: 0, 1250, 2500 PPM IN DIET FOR 103 WK): inactive; negative
carcinogen call (Species: RAT, Strain/Sex: F344/FEMALE, Route: ORAL, Dose: 0, 620, 1250 PPM IN DIET FOR 103 WK, Dose: 0, 620, 1250 PPM IN DIET FOR 103 WK): inactive; negative
carcinogen call (Species: RAT, Strain/Sex: F344/MALE, Route: ORAL, Dose: 0, 620, 1250 PPM IN DIET FOR 103 WK, Dose: 0, 620, 1250 PPM IN DIET FOR 103 WK): inactive; negative

O=C(O)CCCCCCCCC(=O)O
carcinogen call (Species: RABBIT, Strain/Sex: NEW ZEALAND/FEMALE, Route: ORAL, Dose: 0, 750, 1000 MG/KG/BW IN DIET FOR 6 MO (STUDY DURATION: 181 D), Dose: 0, 750, 1000 MG/KG/BW IN DIET FOR 6 MO (STUDY DURATION: 181 D)): inactive; negative
carcinogen call (Species: RABBIT, Strain/Sex: NEW ZEALAND/MALE, Route: ORAL, Dose: 0, 750, 1000 MG/KG/BW IN DIET FOR 6 MO (STUDY DURATION: 181 D), Dose: 0, 750, 1000 MG/KG/BW IN DIET FOR 6 MO (STUDY DURATION: 181 D)): inactive; negative
carcinogen call (Species: RAT, Strain/Sex: WISTAR/FEMALE, Route: ORAL, Dose: 0, 500, 1000 MG/KG/BW IN DIET FOR 6 MO (STUDY DURATION: 181 D), Dose: 0, 500, 1000 MG/KG/BW IN DIET FOR 6 MO (STUDY DURATION: 181 D)): inactive; negative
carcinogen call (Species: RAT, Strain/Sex: WISTAR/MALE, Route: ORAL, Dose: 0, 500, 1000 MG/KG/BW IN DIET FOR 6 MO (STUDY DURATION: 181 D), Dose: 0, 500, 1000 MG/KG/BW IN DIET FOR 6 MO (STUDY DURATION: 181 D)): inactive; negative

CC(C)=NO
carcinogen call (Species: RAT, Strain/Sex: WISTAR/MALE, Route: ORAL, Dose: 1.0 G/L IN DRINKING WATER 5/WK FOR 18 MO, Tumor Site: Type of Lesion: LIVER: HEPATOCELLULAR ADENOMA): active; positive

OC[C@H]1O[C@@H]2O[C@H]3[C@H](O)[C@@H](O)[C@@H](O[C@H]4[C@H](O)[C@@H](O)[C@@H](O[C@H]5[C@H](O)[C@@H](O)[C@@H](O[C@H]6[C@H](O)[C@@H](O)[C@@H](O[C@H]7[C@H](O)[C@@H](O)[C@@H](O[C@H]8[C@H](O)[C@@H](O)[C@@H](O[C@H]1[C@H](O)[C@H]2O)O[C@@H]8CO)O[C@@H]7CO)O[C@@H]6CO)O[C@@H]5CO)O[C@@H]4CO)O[C@@H]3CO
carcinogen call (Species: MOUSE, Strain/Sex: CD-1/FEMALE, Route: ORAL, Dose: 0, 25, 75, 225, 675 MG/KG/D IN DIET FOR 105 WK (STUDY DURATION: 105 WK), Dose: 0, 25, 75, 225, 675 MG/KG/D IN DIET FOR 105 WK (STUDY DURATION: 105 WK)): inactive; negative
carcinogen call (Species: MOUSE, Strain/Sex: CD-1/MALE, Route: ORAL, Dose: 0, 25, 75, 225, 675 MG/KG/D IN DIET FOR 93 WK (STUDY DURATION: 93 WK), Dose: 0, 25, 75, 225, 675 MG/KG/D IN DIET FOR 93 WK (STUDY DURATION: 93 WK)): inactive; negative
carcinogen call (Species: RAT, Strain/Sex: F344/FEMALE, Route: ORAL, Dose: 0, 2.5, 5% IN DIET FOR 104 WK (STUDY DURATION: 109 WK), Dose: 0, 2.5, 5% IN DIET FOR 104 WK (STUDY DURATION: 109 WK)): inactive; negative
carcinogen call (Species: RAT, Strain/Sex: F344/FEMALE, Route: ORAL, Dose: 0, 25, 75, 225, 675 MG/KG/D IN DIET FOR 130 WK (STUDY DURATION: 130 WK), Dose: 0, 25, 75, 225, 675 MG/KG/D IN DIET FOR 130 WK (STUDY DURATION: 130 WK)): inactive; negative
carcinogen call (Species: RAT, Strain/Sex: F344/MALE, Route: ORAL, Dose: 0, 2.5, 5% IN DIET FOR 104 WK (STUDY DURATION: 109 WK), Dose: 0, 2.5, 5% IN DIET FOR 104 WK (STUDY DURATION: 109 WK)): inactive; negative
carcinogen call (Species: RAT, Strain/Sex: F344/MALE, Route: ORAL, Dose: 0, 25, 75, 225, 675 MG/KG/D IN DIET FOR 122 WK (STUDY DURATION: 122 WK), Dose: 0, 25, 75, 225, 675 MG/KG/D IN DIET FOR 122 WK (STUDY DURATION: 122 WK)): inactive; negative

O=S(=O)(c1ccc(Cl)cc1)c1ccc(Cl)cc1
carcinogen call (Species: MOUSE, Strain/Sex: B6C3F1/FEMALE, Route: ORAL, Dose: 0, 30, 100, 300 PPM IN DIET FOR 104-105 WK (STUDY DURATION: 104-105 WK), Dose: 0, 30, 100, 300 PPM IN DIET FOR 104-105 WK (STUDY DURATION: 104-105 WK)): inactive; negative
carcinogen call (Species: MOUSE, Strain/Sex: B6C3F1/MALE, Route: ORAL, Dose: 0, 30, 100, 300 PPM IN DIET FOR 104-105 WK (STUDY DURATION: 104-105 WK), Dose: 0, 30, 100, 300 PPM IN DIET FOR 104-105 WK (STUDY DURATION: 104-105 WK)): inactive; negative
carcinogen call (Species: RAT, Strain/Sex: F344/FEMALE, Route: ORAL, Dose: 0, 30, 100, 300 PPM IN DIET FOR 104-105 WK (STUDY DURATION: 104-105 WK), Dose: 0, 30, 100, 300 PPM IN DIET FOR 104-105 WK (STUDY DURATION: 104-105 WK)): inactive; negative
carcinogen call (Species: RAT, Strain/Sex: F344/MALE, Route: ORAL, Dose: 0, 10, 30, 100, 300 PPM IN DIET FOR 104-105 WK (STUDY DURATION: 104-105 WK), Dose: 0, 10, 30, 100, 300 PPM IN DIET FOR 104-105 WK (STUDY DURATION: 104-105 WK)): inactive; negative
